Data on one molecule can be found in article PMC6934184, “Selective DNA-PKcs inhibition extends the therapeutic index of localized radiotherapy and chemotherapy” (The Journal of Clinical Investigation, 2019).

Values joined by “and” are separate entries in the source; they are usually repeats but may differ in a detail not shown here. Equal entries are not always repeated.

What all share (test): SelectScreen Profiling IC50
What all share (assay type): biochemical

The target of one assay is ATM (Homo sapiens, UniProt Q13315). How it is done: (§1) The in vitro kinase selectivity of NU5455 was determined using the SelectScreen Broad Assay Panel (Thermo Fisher Scientific) involving activity and binding assays (Supplemental Table 1). […] Class IA PI3Ks were measured using the p85α subunit.
Chain of ATM (Q13315 whole entry): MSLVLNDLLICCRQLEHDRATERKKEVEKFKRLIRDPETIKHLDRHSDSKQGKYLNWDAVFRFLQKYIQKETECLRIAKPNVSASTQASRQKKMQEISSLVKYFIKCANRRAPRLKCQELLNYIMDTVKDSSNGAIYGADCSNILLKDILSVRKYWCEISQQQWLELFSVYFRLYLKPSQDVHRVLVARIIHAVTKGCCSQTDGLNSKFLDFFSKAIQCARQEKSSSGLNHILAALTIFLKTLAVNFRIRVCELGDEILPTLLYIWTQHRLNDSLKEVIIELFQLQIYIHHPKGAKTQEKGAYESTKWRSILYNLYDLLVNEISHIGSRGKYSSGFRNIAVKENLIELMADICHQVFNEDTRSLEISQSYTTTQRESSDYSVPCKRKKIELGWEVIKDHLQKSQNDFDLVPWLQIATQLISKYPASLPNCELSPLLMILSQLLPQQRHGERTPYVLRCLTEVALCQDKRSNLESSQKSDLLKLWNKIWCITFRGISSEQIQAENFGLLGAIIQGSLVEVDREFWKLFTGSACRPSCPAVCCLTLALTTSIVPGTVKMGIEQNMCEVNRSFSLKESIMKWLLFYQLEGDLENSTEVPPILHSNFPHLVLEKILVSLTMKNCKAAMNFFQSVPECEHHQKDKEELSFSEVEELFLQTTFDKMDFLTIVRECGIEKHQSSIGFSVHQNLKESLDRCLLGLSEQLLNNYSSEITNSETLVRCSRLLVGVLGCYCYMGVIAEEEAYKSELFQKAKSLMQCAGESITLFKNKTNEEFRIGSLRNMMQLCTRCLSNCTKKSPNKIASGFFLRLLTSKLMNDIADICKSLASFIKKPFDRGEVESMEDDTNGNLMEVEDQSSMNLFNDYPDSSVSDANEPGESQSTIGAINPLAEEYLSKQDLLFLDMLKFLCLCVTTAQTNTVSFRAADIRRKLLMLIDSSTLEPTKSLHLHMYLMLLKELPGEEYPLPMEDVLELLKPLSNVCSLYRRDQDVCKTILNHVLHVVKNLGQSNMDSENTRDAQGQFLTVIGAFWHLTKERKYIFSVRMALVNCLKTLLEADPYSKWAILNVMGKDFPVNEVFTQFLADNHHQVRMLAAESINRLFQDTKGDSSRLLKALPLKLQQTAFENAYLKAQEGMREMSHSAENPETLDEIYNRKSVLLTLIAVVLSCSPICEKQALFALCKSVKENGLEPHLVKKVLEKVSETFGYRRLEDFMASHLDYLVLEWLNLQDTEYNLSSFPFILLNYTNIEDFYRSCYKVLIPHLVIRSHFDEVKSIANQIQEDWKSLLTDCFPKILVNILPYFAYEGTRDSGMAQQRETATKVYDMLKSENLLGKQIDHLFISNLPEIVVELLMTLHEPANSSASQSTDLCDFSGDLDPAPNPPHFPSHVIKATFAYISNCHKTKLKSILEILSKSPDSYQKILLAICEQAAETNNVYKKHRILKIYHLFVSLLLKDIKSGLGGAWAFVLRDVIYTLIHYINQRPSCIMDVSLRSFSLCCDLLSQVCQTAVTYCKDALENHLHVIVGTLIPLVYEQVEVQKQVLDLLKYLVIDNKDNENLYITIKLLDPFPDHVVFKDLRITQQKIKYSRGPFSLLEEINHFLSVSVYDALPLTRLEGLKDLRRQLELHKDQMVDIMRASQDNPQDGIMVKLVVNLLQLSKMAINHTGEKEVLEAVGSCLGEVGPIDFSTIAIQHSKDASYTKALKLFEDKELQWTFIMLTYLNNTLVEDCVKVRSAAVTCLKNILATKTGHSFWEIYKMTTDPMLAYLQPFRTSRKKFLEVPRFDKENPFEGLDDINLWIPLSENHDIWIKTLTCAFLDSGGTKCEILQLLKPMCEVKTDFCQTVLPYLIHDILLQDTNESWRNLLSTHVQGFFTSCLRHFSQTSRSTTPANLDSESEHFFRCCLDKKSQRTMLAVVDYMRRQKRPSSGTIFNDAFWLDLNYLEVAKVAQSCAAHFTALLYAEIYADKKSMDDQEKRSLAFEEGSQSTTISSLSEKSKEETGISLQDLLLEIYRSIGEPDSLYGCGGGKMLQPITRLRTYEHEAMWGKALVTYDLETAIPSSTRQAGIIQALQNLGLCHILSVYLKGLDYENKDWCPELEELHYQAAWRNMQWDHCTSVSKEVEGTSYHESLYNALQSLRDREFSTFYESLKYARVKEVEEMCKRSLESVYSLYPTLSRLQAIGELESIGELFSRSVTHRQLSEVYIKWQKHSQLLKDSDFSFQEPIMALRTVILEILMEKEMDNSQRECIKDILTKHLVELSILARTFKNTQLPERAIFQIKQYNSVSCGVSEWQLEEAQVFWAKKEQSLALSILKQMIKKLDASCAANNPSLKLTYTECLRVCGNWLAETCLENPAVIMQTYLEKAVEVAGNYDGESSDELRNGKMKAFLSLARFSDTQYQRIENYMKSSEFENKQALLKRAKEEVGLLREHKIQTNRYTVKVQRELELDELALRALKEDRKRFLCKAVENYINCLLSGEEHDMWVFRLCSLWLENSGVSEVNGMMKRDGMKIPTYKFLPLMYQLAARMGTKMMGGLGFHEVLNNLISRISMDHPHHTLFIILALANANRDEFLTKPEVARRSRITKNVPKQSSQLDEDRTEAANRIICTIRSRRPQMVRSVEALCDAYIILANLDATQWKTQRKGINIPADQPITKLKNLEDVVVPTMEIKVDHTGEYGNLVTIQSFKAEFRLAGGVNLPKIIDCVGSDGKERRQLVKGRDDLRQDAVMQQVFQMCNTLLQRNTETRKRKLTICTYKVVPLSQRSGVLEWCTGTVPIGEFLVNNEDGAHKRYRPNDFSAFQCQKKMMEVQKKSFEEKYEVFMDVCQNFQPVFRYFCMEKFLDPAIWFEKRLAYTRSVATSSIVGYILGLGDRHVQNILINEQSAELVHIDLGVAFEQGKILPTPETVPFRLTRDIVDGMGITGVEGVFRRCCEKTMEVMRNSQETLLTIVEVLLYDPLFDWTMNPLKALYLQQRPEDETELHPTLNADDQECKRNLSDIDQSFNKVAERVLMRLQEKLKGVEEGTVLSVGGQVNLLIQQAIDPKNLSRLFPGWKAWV
(§2) PI3K Kinase NU5455 IC (nM) Fold selectivity
(§3) Supplemental Table 2. NU5455 potency and selectivity across the PI3K kinase family.
(§4) µM NU5455 for DNA-PK versus other PIKK and PI3K family members was assessed by SelectScreen Profiling (Life Technologies). The
(§5) ATP concentration was the Kmapp except for * where the ATP concentration was 10 μM (mean ± SEM, n=4-7).

Another assay concerns the target ATR (Homo sapiens, UniProt Q13535). How it is done:
as §1, §2, §3, §4, §5

The next assay concerns the target DNA-PK (Homo sapiens, UniProt P78527). The note with it: cell-free; ATP Km app; mean ± SEM, n=4-7; read-out: NU5455 IC50. How it is done:
as §1, §2, §3, §4, §5

Another assay concerns the target PI3K-C2α (Homo sapiens, UniProt O00443). How it is done:
as §1, §2, §3, §4, §5

The target of the next assay is PI3K-C2β (Homo sapiens, UniProt O00750). The settings on record: ATP 10 μM. How it is done: as §1, §2, §3, §4, §5
In a further assay the target is PI3K-C2γ (Homo sapiens, UniProt O75747). As for the experimental part:
as §1, §2, §3, §4, §5

A further assay addresses Vps34 (Homo sapiens, UniProt Q8NEB9). As for the experimental part:
as §1, §2, §3, §4, §5

Another assay has as its target mTOR (Homo sapiens, UniProt P42345). How it is done:
as §1, §2, §3, §4, §5

Another assay concerns the target p110α (Homo sapiens, UniProt P42336). How it is done:
as §1, §2, §3, §4, §5

The target of a further assay is p110β (Homo sapiens, UniProt P42338). How it is done:
as §1, §2, §3, §4, §5

The target in another assay is p110γ (Homo sapiens, UniProt P48736). As for the experimental part: as §1, §2, §3, §4, §5
The next assay deals with p110δ (Homo sapiens, UniProt O00329). As for the experimental part:
as §1, §2, §3, §4, §5

Setting [1] is: cell-free, ATP Km app, read-out: NU5455 IC50.
Setting [2] is: cell-free, ATP Km app, mean ± SEM, read-out: NU5455 IC50.
The mark [3] stands for this setting: cell-free, ATP Km app, p85α subunit, mean ± SEM, read-out: NU5455 IC50.

Chain of p110α (P42336 whole entry): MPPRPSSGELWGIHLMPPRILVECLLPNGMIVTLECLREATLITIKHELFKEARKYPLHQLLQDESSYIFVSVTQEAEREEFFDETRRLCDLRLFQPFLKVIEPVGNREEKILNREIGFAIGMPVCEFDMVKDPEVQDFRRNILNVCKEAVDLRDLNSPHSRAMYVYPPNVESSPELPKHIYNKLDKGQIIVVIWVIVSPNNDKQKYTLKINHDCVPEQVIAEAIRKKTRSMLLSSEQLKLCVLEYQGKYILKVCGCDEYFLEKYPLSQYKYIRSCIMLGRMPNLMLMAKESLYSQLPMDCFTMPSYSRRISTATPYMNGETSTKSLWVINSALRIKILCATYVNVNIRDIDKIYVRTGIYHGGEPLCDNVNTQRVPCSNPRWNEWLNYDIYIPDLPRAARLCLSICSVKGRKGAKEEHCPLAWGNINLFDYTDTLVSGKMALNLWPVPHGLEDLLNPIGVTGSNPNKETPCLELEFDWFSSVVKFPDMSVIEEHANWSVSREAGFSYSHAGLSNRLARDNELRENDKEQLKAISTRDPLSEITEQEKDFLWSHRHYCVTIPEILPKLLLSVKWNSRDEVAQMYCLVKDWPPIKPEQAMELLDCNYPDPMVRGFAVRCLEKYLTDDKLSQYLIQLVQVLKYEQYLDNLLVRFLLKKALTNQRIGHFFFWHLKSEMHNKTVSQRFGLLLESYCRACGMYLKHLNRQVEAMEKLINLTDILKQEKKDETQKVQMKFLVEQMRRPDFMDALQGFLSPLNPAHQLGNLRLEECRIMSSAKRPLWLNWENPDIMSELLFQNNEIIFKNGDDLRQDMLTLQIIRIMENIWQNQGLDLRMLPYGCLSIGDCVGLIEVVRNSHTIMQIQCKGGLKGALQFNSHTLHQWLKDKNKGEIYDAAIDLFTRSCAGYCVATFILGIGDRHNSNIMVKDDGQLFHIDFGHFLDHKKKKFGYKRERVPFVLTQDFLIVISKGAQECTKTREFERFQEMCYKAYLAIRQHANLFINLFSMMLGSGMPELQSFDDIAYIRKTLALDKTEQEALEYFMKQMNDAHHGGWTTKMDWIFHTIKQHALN
Chain of p110α (P27986 whole entry partner): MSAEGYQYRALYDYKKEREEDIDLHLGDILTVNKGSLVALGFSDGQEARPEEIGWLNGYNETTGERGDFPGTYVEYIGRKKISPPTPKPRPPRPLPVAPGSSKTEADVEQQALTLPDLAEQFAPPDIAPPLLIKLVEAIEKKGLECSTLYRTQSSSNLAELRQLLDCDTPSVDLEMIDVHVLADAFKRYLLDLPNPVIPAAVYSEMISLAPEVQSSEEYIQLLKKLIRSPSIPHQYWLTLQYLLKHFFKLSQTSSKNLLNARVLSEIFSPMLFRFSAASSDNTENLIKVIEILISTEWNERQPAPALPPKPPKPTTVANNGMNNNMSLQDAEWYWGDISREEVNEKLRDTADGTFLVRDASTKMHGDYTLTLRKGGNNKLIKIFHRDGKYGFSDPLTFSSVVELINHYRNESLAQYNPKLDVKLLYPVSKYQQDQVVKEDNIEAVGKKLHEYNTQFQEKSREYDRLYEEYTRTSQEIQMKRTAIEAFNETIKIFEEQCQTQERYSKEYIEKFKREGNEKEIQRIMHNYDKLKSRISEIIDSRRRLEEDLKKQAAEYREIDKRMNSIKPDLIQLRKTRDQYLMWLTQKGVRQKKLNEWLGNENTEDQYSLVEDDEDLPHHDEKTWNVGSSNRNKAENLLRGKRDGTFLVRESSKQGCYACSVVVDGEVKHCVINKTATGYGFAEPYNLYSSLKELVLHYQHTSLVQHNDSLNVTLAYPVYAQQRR

In general, IC50 refers to the concentration that gives 50% inhibition. Regarding `CN(C(=O)CN1CCOCC1)c1ccc2sc3c(-c4cccc5c(=O)cc(N6CC7CCC(C6)O7)oc45)cccc3c2c1` [NU5455], the IC50 at ATM (setting [1]) was more than 10000 nM; at ATR (setting [1]), more than 10000 nM; on DNA-PK, 8.2 ± 2 nM; on PI3K-C2α (setting [1]), more than 10000 nM; on PI3K-C2β (cell-free, mean ± SEM, read-out: NU5455 IC50), 1960 ± 424 nM; at PI3K-C2γ (setting [1]) it was more than 10000 nM. Also, the half-maximal inhibitory concentration (IC50) is 71 ± 19 nM on Vps34 (setting [2]); 4060 ± 1120 nM on mTOR (setting [2]); 1870 ± 216 nM on p110α (setting [3]); 9320 ± 1240 nM at p110β (setting [3]); more than 10000 nM at p110γ (setting [1]); 276 ± 22 nM on p110δ (setting [3]). The “Fold selectivity for DNA-PK” value on ATM (versus ATM) is > 1220 fold and > 1200 fold; at ATR (versus ATR), > 1220 fold and > 1200 fold; on PI3K-C2α (versus PI3K-C2α) it was more than 1220 fold; at PI3K-C2β (versus PI3K-C2β) it was 239 fold; at PI3K-C2γ (versus PI3K-C2γ), more than 1220 fold; on Vps34 (versus Vps34), 8.7 fold. For the same molecule, the “Fold selectivity for DNA-PK” value is listed as 495 fold on mTOR (versus mTOR); 228 fold on p110α (versus p110α (PI3Kα)); 1137 fold at p110β (versus p110β); more than 1220 fold on p110γ (versus p110γ); 33.7 fold on p110δ (versus p110δ (PI3Kδ)).
